In ChEMBL document CHEMBL1153369, “First asymmetric synthesis of CJ-14877 and its enantiomer and their interleukin-1beta inhibitory activities” (2009):

How the values were obtained:
Assay type in all cases: functional
[1] = tested on: PBMC; experiment: Inhibition of LPS-induced IL1-beta production in human PBMC at 1.0 uM after 24 hrs by ELISA
[2] = tested on: PBMC; experiment: Inhibition of LPS-induced IL1-beta production in human PBMC at 10 uM after 24 hrs by ELISA
[3] = tested on: PBMC; experiment: Inhibition of LPS-induced IL1-beta production in human PBMC at 0.1 uM after 24 hrs by ELISA
[4] = tested on: PBMC; experiment: Inhibition of LPS-induced IL1-beta production in human PBMC at 0.01 uM after 24 hrs by ELISA

SMILES	inhibition at 1 µM [1] [%]	inhibition at 10 µM [2] [%]	inhibition at 0.1 µM [3] [%]	inhibition at 0.01 µM [4] [%]
COC(=O)c1ccc([C@H](O)[C@H](C)O)cn1	39.6	49.8	13.8	-9.5
COC(=O)c1ccc([C@@H](O)[C@@H](C)O)cn1	10.6	-7.5	4.3	9.1
